Holding throughout (type): cell-based
The test system of series [1] is Herpes simplex type 1 virus (HFEM strain). The experiment in a line: Plaque reduction test in virus-infected Vero cells. On the procedure: (§1) Vero (African Green Monkey Kidney) cells were grown to confluence in 24 well multidishes, each well being 1.6cm in diameter. The cells were infected with Herpes simplex type 1 virus (HFEM strain) and overlaid with 0.5ml of 0.9% agarose (w/v) in maintenance medium. Test compounds prepared in maintenance medium in concentrations ranging from 100 to 0.03pg/ml in half-log dilution steps, were added in 0.5ml volume. The virus infected cultures were then incubated at 37° for 4 days before fixing in 4% formaldehyde solution and staining with carbolfuchsin.

Series [2] concerns Vero (African Green Monkey Kidney) cells. Description: in vitro. The settings on record: minimum concentration of test compound which caused cytotoxicity; Vero cells, 4 days at 37°; highest concentration tested 100. As to the method:
as §1

Series [3] is described as follows: in vitro. To be noted: african green monkey, vero cells. On the procedure: as §1
The nature of series [4]: in vitro. To be noted: african green monkey; minimum concentration of test compound which caused cytotoxicity; Vero cells, 4 days at 37°; highest concentration tested 100; read-out: MTD.
Where [5] appears, read: Human alphaherpesvirus 1, Vero, 96 h, read-out: PDD50, concentration causing 50% reduction in number of virus plaques, HSV-1 HFEM strain, 4 days at 37°.
Setting [6] is: Human alphaherpesvirus 1, Vero, 96 h, read-out: PDD50, concentration causing 50% reduction in number of virus plaques, HSV-1 HFEM strain, 4 days at 37°, molar units.
[7] abbreviates: Human alphaherpesvirus 1, 96 h, concentration causing 50% reduction in number of virus plaques, HSV-1 HFEM strain, 4 days at 37°, molar units, read-out: PDD50 (the source's name).
[8] abbreviates: Human alphaherpesvirus 1, 96 h, concentration causing 50% reduction in number of virus plaques, HSV-1 HFEM strain, 4 days at 37°, read-out: PDD50 (the source's name).

Counter-ions that a name gives are not always drawn. Like-named read-outs stand apart in the source and are kept apart here.

For the compound `CCOC(=O)OC[C@H]1O[C@@H](n2cc(/C=C/Br)c(=O)[nH]c2=O)C[C@@H]1OP(=O)([O-])[O-].[Na+].[Na+]` [Example 12, 5-(E-2-Bromovinyl)-2'-deoxy-5'-O-ethoxycarbonyluridine 3'-Phosphate Disodium Salt], the IC50 amounted to 12 µg/mL in series [1] (setting [5]) and 23000 nM in series [1] (setting [6]). The compound further gave an MTD in series [2] of over 100 µg/mL.

Turning to `COC(=O)OC[C@H]1O[C@@H](n2cc(/C=C/Br)c(=O)[nH]c2=O)C[C@@H]1O` [Example 3, 5-(E-2-Bromovinyl)-2'-deoxy-5'-O-methoxycarbonyluridine], the results for the IC50 in series [1] (setting [7]) and in series [1] (setting [8]) were 3800 nM and 1.5 µg/mL, respectively. The MCC at 96 h in “in vitro [3]” is over 100 µg/mL.

`COC(=O)OC[C@H]1O[C@@H](n2cc(/C=C/Br)c(=O)[nH]c2=O)C[C@@H]1OC(=O)OC` [Example 1, 5-(E-2-Bromovinyl)-2'-deoxy-3',5'-bis-0-methoxycarbonyl-uridine]: the IC50 came to 11800 nM in series [1] (setting [7]) and 5.3 µg/mL in series [1] (setting [8]). For the same compound, the MCC at 96 h in the series “in vitro [3]” was over 100 µg/mL.

In the case of `CC(C)(C)OC(=O)O[C@H]1C[C@H](n2cc(/C=C/Br)c(=O)[nH]c2=O)O[C@@H]1CO` [Example 20, 5-(E-2-Bromovinyl)-3'-O-t-butoxycarbonyl-2^1-deoxyuridine], the IC50 in series [1] (setting [7]) turned out to be 400 nM; in series [1] (setting [8]), 0.18 µg/mL. The MCC at 96 h in the series “in vitro [3]” was over 100 µg/mL.

Consider `C=Cc1cn([C@H]2C[C@H](O)[C@@H](COC(=O)OCC)O2)c(=O)[nH]c1=O` [Example 27, 2^1-Deoxy-5^1-O-ethoxycarbonyl-5-vinyluridine], for which the values for the IC50 in series [1] (setting [7]) and in series [1] (setting [8]) were 4600 nM and 1.5 µg/mL, respectively. In addition, the MCC at 96 h in “in vitro [3]” was over 100 µg/mL.

On to `O=C(OCCO)OC[C@H]1O[C@@H](n2cc(/C=C/Br)c(=O)[nH]c2=O)C[C@@H]1O` [Example 26, 5-(E-2-Bromovinyl)-2'-deoxy-5'-0-(2-hydroxyethox^ycarbonyl)-uridine], for which the IC50 in series [1] (setting [7]) was found to be 1800 nM; in series [1] (setting [8]), 0.76 µg/mL. The same compound displayed an MCC at 96 h in “in vitro [3]” of over 100 µg/mL.

As for `O=C(OC[C@H]1O[C@@H](n2cc(/C=C/Br)c(=O)[nH]c2=O)C[C@@H]1O)Oc1ccccc1` [Example 23, 5-(E-2-Bromovinyl)-5'-0-phenoxycarbonyl-2'-deoxyuridine], the values for the IC50 in series [1] (setting [7]) and in series [1] (setting [8]) were 400 nM and 0.18 µg/mL, respectively. Besides, in “in vitro [3]”, the MCC at 96 h is over 100 µg/mL.

For the compound `CCCOC(=O)OC[C@H]1O[C@@H](n2cc(/C=C/Br)c(=O)[nH]c2=O)C[C@@H]1O` [Example 14, 5-(E-2-Bromovinyl)-2'-deoxy-5'-0-propoxycarbcnyluridine], the values for the IC50 in series [1] (setting [7]) and in series [1] (setting [8]) were 900 nM and 0.39 µg/mL, respectively. In addition, in the series “in vitro [3]”, the MCC at 96 h was over 100 µg/mL.

As to `CC(C)(C)OC(=O)OC[C@H]1O[C@@H](n2cc(/C=C/Br)c(=O)[nH]c2=O)C[C@@H]1OC(=O)OC(C)(C)C` [Example 19, 5-(E-2-Bromovinyl)-3',5'-bis-O-t-butoxycarbonyl-2^1-deoxyuridine], the IC50 in series [1] (setting [7]) is 3800 nM; in series [1] (setting [8]), 2 µg/mL. Besides, the MCC at 96 h in the series “in vitro [3]” was over 100 µg/mL.

On to `CCCCC(=O)O[C@H]1C[C@H](n2cc(/C=C/Br)c(=O)[nH]c2=O)O[C@@H]1COC(=O)OCC` [Example 9, 5-(E-2-Bromovinyl)-2'-deoxy-5'-O-ethoxyarbonyl-3'-O-valeryluridine], for which the values for the IC50 in series [1] (setting [7]) and in series [1] (setting [8]) were 3000 nM and 1.5 µg/mL, respectively. This compound also had an MCC at 96 h in “in vitro [3]” of over 100 µg/mL.

On to `CC(C)OC(=O)OC[C@H]1O[C@@H](n2cc(/C=C/Br)c(=O)[nH]c2=O)C[C@@H]1O` [Example 25, 5-(E-2-Bromovinyl)-2'-deoxy-5'-0-isopropoxycarbonyluridine], for which the IC50 was found to be 2100 nM in series [1] (setting [7]) and 0.88 µg/mL in series [1] (setting [8]). In the series “in vitro [3]”, this compound gave an MCC at 96 h of over 100 µg/mL.

With `CCOC(=O)OC[C@H]1O[C@@H](n2cc(/C=C/Br)c(=O)[nH]c2=O)C[C@@H]1OC(=O)OCC` [Example 4, 5-(E-2-Bromovinyl)-2'-deoxy-3',5'-bis-0-ethoxycarbonyluridine], the IC50 in series [1] (setting [7]) came to 2300 nM; in series [1] (setting [8]) it was 1.1 µg/mL. The compound also gave an MCC at 96 h in “in vitro [3]” of over 100 µg/mL.

On to `CCCCOC(=O)OC[C@H]1O[C@@H](n2cc(/C=C/Br)c(=O)[nH]c2=O)C[C@@H]1O` [Example 15, 5-(E-2-Bromovinyl)-5'-0-n-butoxycarbonyl-2'-deoxyuridine], for which the IC50 in series [1] (setting [7]) is 600 nM; in series [1] (setting [8]) it was 0.25 µg/mL. Moreover, the MCC at 96 h in “in vitro [3]” was over 100 µg/mL.

With `O=C(OCc1ccccc1)OC[C@H]1O[C@@H](n2cc(/C=C/Br)c(=O)[nH]c2=O)C[C@@H]1O` [Example 22, 5'-O-Benzyloxycycarbonyl-5-(E-2-bromovinyl)-2'-deoxyuridine], the IC50 in series [1] (setting [7]) is 100 nM; in series [1] (setting [8]), 0.05 µg/mL. Moreover, the MCC at 96 h in the series “in vitro [3]” is over 100 µg/mL.

In the case of `O=C(OC[C@H]1O[C@@H](n2cc(/C=C/Br)c(=O)[nH]c2=O)C[C@@H]1O)Oc1ccc([N+](=O)[O-])cc1` [Example 24, 5-(E-2-Bromovinyl)-2'-deoxy-5'-O-(p-nitrophenoxycarbonyl)uridine], the IC50 in series [1] (setting [7]) worked out at 1200 nM; in series [1] (setting [8]), 0.6 µg/mL. For the same compound, in the series “in vitro [3]”, the MCC at 96 h turned out to be 100 µg/mL.

With `CCOC(=O)O[C@H]1C[C@H](n2cc(/C=C/Br)c(=O)[nH]c2=O)O[C@@H]1CO` [Example 6, 5-(E-2-Bromovinyl)-2'-deoxy-3'-0-ethoxycarbonyluridine], the IC50 is 1100 nM in series [1] (setting [7]) and 0.43 µg/mL in series [1] (setting [8]). The compound also displayed an MCC at 96 h in “in vitro [3]” of over 100 µg/mL.

On to `CCOC(=O)n1c(=O)c(/C=C/Br)cn([C@H]2C[C@H](O)[C@@H](CO)O2)c1=O` [Example 7, 5-(E-2-Bromovinyl)-2'-deoxy-3-ethoxycarbonyluridine], for which the IC50 in series [1] (setting [7]) came out at 12300 nM; in series [1] (setting [8]), 5 µg/mL. Also, the MCC at 96 h in “in vitro [4]” was over 100 µg/mL.

With `CCOC(=O)OC[C@H]1O[C@@H](n2cc(/C=C/Br)c(=O)[nH]c2=O)C[C@@H]1OP(=O)(O)O` [Example 13, 5-(E-2-Bromovinyl)-2'-deoxy-5'-0-ethoxycarbonyluridine 3'-Phosphate Monosodium Salt], the results for the IC50 in series [1] (setting [7]) and in series [1] (setting [8]) were 7500 nM and 3.8 µg/mL, respectively. For the same compound, the MCC at 96 h in “in vitro [4]” is over 100 µg/mL.

`C=CCOC(=O)OC[C@H]1O[C@@H](n2cc(/C=C/Br)c(=O)[nH]c2=O)C[C@@H]1O` [Example 21, 5'-0-Allyloxycarbonyl-5-(E-2-bromovinyl)-2'-deoxyuridine]: the IC50 worked out at 1700 nM in series [1] (setting [7]) and 0.72 µg/mL in series [1] (setting [8]). The MCC at 96 h in the series “in vitro [3]” was over 100 µg/mL.

With `CC(C)COC(=O)OC[C@H]1O[C@@H](n2cc(/C=C/Br)c(=O)[nH]c2=O)C[C@@H]1OC(=O)OCC(C)C` [Example 16, 5-(E-2-Bromovinyl)-3',5'-bis-0-isobutoxycarbonyl-2'-deoxyuridine], the IC50 was found to be 800 nM in series [1] (setting [7]) and 0.44 µg/mL in series [1] (setting [8]). In addition, in the series “in vitro [3]”, the MCC at 96 h stood at 100 µg/mL.

In the case of `COC(=O)O[C@H]1C[C@H](n2cc(/C=C/Br)c(=O)[nH]c2=O)O[C@@H]1CO` [Example 2, 5-(E-2-Bromovinyl)-2'-deoxy-3'-0-methoxycarbonyluridine], the IC50 in series [1] (setting [7]) was determined as 1900 nM; in series [1] (setting [8]) it was 0.74 µg/mL. In the series “in vitro [3]”, this compound returned an MCC at 96 h of over 100 µg/mL.

In the case of `CCOC(=O)OC[C@H]1O[C@@H](n2cc(/C=C/Br)c(=O)[nH]c2=O)C[C@@H]1OC(=O)CCC(=O)[O-].[Na+]` [Sodium Salt], in series [1] (setting [6]), the IC50 was determined as 12000 nM. Further, the MCC at 96 h in the series “in vitro [4]” was over 100 µg/mL.

Regarding `CCCCC(=O)n1c(=O)c(/C=C/Br)cn([C@H]2C[C@H](O)[C@@H](COC(=O)OCC)O2)c1=O` [Example 10, 5-(E-2-Bromovinyl)-2'-deoxy-5'-0-ethoxycarbonyl-3-valeryl-uridine], the IC50 in series [1] (setting [7]) worked out at 6700 nM; in series [1] (setting [8]), 3.3 µg/mL. In the series “in vitro [3]”, this compound had an MCC at 96 h of over 100 µg/mL.

Consider `CCOC(=O)OC[C@H]1O[C@@H](n2cc(/C=C/Br)c(=O)[nH]c2=O)C[C@@H]1O` [Example 5, 5-(E-2-Bromovinyl)-2'-deoxy-5'-0-ethoxycarbonyluridine], for which the IC50 stood at 700 nM in series [1] (setting [7]) and 0.28 µg/mL in series [1] (setting [8]). For the same compound, in “in vitro [3]”, the MCC at 96 h was over 100 µg/mL.

Regarding `CCCCC(=O)O[C@H]1C[C@H](n2cc(/C=C/Br)c(=O)n(C(=O)CCCC)c2=O)O[C@@H]1COC(=O)OCC` [Example 8, 5-(E-2-Bromovinyl)-2'-deoxy-5'-0-ethoxycarbonyl-3,3'-0-bisvaleryluridine], the IC50 stood at 3000 nM in series [1] (setting [7]) and 1.7 µg/mL in series [1] (setting [8]). The MCC at 96 h in the series “in vitro [3]” is over 100 µg/mL.

Take `CC(C)COC(=O)OC[C@H]1O[C@@H](n2cc(/C=C/Br)c(=O)[nH]c2=O)C[C@@H]1O` [Example 17, 5-(E-2-Bromovinyl)-5'-O-isobutoxycarbonyl-2'-deoxyuridine]: the values for the IC50 in series [1] (setting [7]) and in series [1] (setting [8]) were 500 nM and 0.22 µg/mL, respectively. This compound also had an MCC at 96 h in the series “in vitro [3]” of over 100 µg/mL.

As for `CCOC(=O)OC[C@H]1O[C@@H](n2cc(/C=C/Br)c(=O)[nH]c2=O)C[C@@H]1OC(=O)CCC(=O)[O-].[Na+]`, the IC50 in series [1] (setting [5]) is 6.3 µg/mL.

Turning to `CC(C)(C)OC(=O)OC[C@H]1O[C@@H](n2cc(/C=C/Br)c(=O)[nH]c2=O)C[C@@H]1O` [Example 18, 5-(E-2-Bromovinyl)-5'-O-t-butoxycarbonyl-2'-deoxyuridine], the IC50 in series [1] (setting [7]) amounted to 700 nM; in series [1] (setting [8]), 0.28 µg/mL. Moreover, the MCC at 96 h in “in vitro [3]” is over 100 µg/mL.
